Results reported in patent publication US7414077B2, “Therapeutic intervention to mimic the effect of caloric restriction” (priority 1999, dated 2008).

Experiments:
5′ deiodinase [1] = assay: 5′ deiodinase activity as a function of substrate concentration (Lineweaver-Burk), control conditions; type: biochemical; conditions: in vitro, without free fatty acids, mean of triplicate determinations, Lineweaver-Burk plot, FIG. 2A
Method: (§1) Reaction velocities were measured under control conditions (▴) and in the presence of 1 mM free fatty acids palmitic acid (●) and oleic acid (▪). Each point on the curve represents the mean of triplicate determinations. Lineweaver-Burk plots described lines characterized by r^2 from 0.988-0.999.

5′ deiodinase [2] = assay: effect of in vitro free fatty acids on 5′ deiodinase activity (thyroid hormone synthesis in vitro); type: biochemical; conditions: 1 mM free fatty acid; as a function of substrate concentration
Method: as §1

Structure (SMILES) | Km (5′ deiodinase [1]) | effect on thyroid hormone synthesis in vitro (5′ deiodinase activity) (5′ deiodinase [2])
N[C@@H](Cc1ccc(Oc2cc(I)c(O)c(I)c2)c(I)c1)C(=O)O [rT3] | 2.38 µM | 
CCCCCCCCCCCCCCCC(=O)O [palmitic acid] |  | inhibit thyroid hormone synthesis in vitro
CCCCCCCC/C=C\CCCCCCCC(=O)O [oleic acid] |  | inhibit thyroid hormone synthesis in vitro
